Entries after “also recorded” stand apart in the source; their conditions may differ.
What was measured:
[1] = tested on: airway smooth muscle (bronchial rings); experiment: Relaxation of evoked isometric force of bronchial rings (wire myograph); assay type: cell-based, mice; settings: for relaxation of evoked force of airway smooth muscle / bronchial rings: in vitro, concentration not given; for relaxation of MCh-evoked force at final concentration of 500 μM: 500 μM final, bronchi ring isometric assay; for IC50: MCh-evoked force, dose dependent
Procedure: Briefly, the entire respiratory tree was rapidly removed and immersed in Krebs-Henseleit buffer (118.1 mM NaCl, 4.7 mM KCl, 1.2 mM MgSO4, 2.5 mM CaCl2, 1.0 mM NaH2PO4, 25 mM NaHCO3 and 11.1 mM glucose, pH 7.4). Bronchial rings, 2 mm in length, were isolated from pulmonary bronchi using a dissection microscope. Then the bronchial segments were mounted in a small-vessel wire myograph chamber (Danish Myo Technology, Aarhus, Denmark) by threading on two steel wires (40 μm in diameter) secured to two supports. One support was attached to a force transducer for measurements of isometric force development, and the other was attached to a micrometer controlling ring circumference. The preparation was kept in the chamber, immersed in 5 ml of Krebs-Henseleit solution, bubbled with 5% CO2 and 95% O2 and maintained at 37° C. The initial isometric tension of bronchial ring was set to 0 mN prior to equilibration for 20 min. The bronchial ring was then stretched in order to keep the force at 5 mN followed by an additional equilibration for 20 min. The isometric forces produced by bronchial ring was recorded with a data acquisition and analysis program (Danish Myo Technology, Aarhus, Denmark).
The robust relaxation effect and low risk of toxicity of KE on airway smooth muscle indicates its promising prospects for development. To identify the active ingredients of KE, the KE was divided into three parts including EtOAc phase, n-BuOH phase and water phase using EtOAc and n-BuOH sequential extraction. Upon the airway smooth muscle rings reached a relative steady contraction state evoked by MCh, accumulated volume of these three phases was added to assess the relaxation capacity. […] On the other hand, 1 μL of EtOAc phase just relaxed the rings to 90%.
Their dose-responsive effect on relaxation of airway smooth muscle was measured. When the force evoked by acetylcholine reached a relatively steady state, kudinosides were added to the bath in cumulative concentrations (0.1 μM, 0.3 μM, 1 μM, 3 μM, 10 μM, 30 μM). […] When the concentration of kudinoside D increased to 10 μM, about 50% of the force was relaxed. Strikingly, upon treatment with 30 μM of kudinoside D, more than 80% of the force was relaxed (FIG. 5B). Similarly, 30 μM of kudinoside A also led to 80% inhibition of evoked force. Note that the relaxation effect of kudinosides was completely reversible, because the relaxed muscles restored response to MCh after washing off.

[2] = tested on: asthmatic airway constriction in acute asthma mouse model; experiment: Airway resistance (Rrs, FlexiVent) in OVA-induced, methacholine-challenged asthma mice; assay type: in vivo, C57BL/6 mice; settings: for inhibition of airway constriction in vivo: mouse
Procedure: Asthma mice were established as reported previously. Briefly, six to eight-week-old female C57BL/6 mice were carried out by intraperitoneal injection of 100 μg ovalbumin and 4 mg Imject Alum (ThermoFisher Scientific) in total volume of 0.2 mL on days 0 and 14. These mice were then challenged with 1.5%-2% aerosolized ovalbumin for 1 h on days 24, 25 and 26. The efficacy of drugs was evaluated by measuring airway resistance in these mice 24 h after the last challenge.
(§1) The airway resistance was measured through an invasive method as described in previous reports. In brief, the mice were anesthetized with 240 mg/kg Avertin and the trachea was cannulated with an 18-gauge metal needle. Mechanical ventilation (FlexiVent; SCIREQ Inc., Montreal, Canada) was applied at a frequency of 150 breaths per minute, a tidal volume of 10 ml/kg, and positive end-expiratory pressure of 2.5 cm H2O. Prior to methacholine challenge, deep inflation was applied followed by administration of aerosolized PBS to obtain stabilization of airway resistance (Rrs, cmH2O·s/mL). The Rrs after PBS was considered to be the baseline. Then mice were challenged with sequential concentrations of methacholine with a dose of 2.0, 4.0, 8.0, 16, 32 and 64 mg/mL by an ultrasonic nebulizer until reaching bronchoconstrictive phase that was four to five folds greater than baseline. Three minutes after the last dose of methacholine inhalation, the reagents were delivered by the same ultrasonic nebulizer. The Rrs measurements were performed every 30 s throughout the experiments. The negative control for these studies was PBS, because all the solvents for reagents used here were PBS. As a positive control, albuterol (3 μg; Sigma), the most widely used β-agonist as an effective bronchodilator for asthma therapy, was used.
as §1, with “Acute asthma model mice were established as reported previously. Briefly, six to eight-week-old female C57BL/6 mice were carried out by intraperitoneal injection of 100 μg ovalbumin and 4 mg Imject Alum (ThermoFisher Scientific) in total volume of 0.2 mL on days 0 and 14. These mice were then challenged with 1.5%-2% aerosolized ovalbumin for 1 h on days 24, 25 and 26. The efficacy of drugs by measuring airway resistance in these mice 24 h was evaluated after the last challenge. The airway” for “The airway”

human asthma (severe) = experiment: Kudinoside A inhalation (atomization device) in two volunteers with severe asthma syndromes; assay type: in vivo; settings: volunteer; for time to release of dyspnea: kudinoside A 20 mM inhaled for 15 seconds, albuterol as control
Procedure: In order to test the effect of single substance in KE extract on asthma therapy, two volunteers with severe asthma syndromes were treated with kudinoside A (20 mM) with an atomization device.

L-type calcium channel = molecular target: T1, L-type calcium channel (Mus musculus, UniProt Q01815); experiment: Whole-cell patch clamp recording of VDCC currents in primary airway smooth muscle cells; assay type: cell-based; settings: 50 μM; room temperature; pulses −60 to +50 mV from −80 mV
T1 construct: endogenous in cells; host or cells: primary airway smooth muscle cells
T1 sequence (Q01815 whole entry): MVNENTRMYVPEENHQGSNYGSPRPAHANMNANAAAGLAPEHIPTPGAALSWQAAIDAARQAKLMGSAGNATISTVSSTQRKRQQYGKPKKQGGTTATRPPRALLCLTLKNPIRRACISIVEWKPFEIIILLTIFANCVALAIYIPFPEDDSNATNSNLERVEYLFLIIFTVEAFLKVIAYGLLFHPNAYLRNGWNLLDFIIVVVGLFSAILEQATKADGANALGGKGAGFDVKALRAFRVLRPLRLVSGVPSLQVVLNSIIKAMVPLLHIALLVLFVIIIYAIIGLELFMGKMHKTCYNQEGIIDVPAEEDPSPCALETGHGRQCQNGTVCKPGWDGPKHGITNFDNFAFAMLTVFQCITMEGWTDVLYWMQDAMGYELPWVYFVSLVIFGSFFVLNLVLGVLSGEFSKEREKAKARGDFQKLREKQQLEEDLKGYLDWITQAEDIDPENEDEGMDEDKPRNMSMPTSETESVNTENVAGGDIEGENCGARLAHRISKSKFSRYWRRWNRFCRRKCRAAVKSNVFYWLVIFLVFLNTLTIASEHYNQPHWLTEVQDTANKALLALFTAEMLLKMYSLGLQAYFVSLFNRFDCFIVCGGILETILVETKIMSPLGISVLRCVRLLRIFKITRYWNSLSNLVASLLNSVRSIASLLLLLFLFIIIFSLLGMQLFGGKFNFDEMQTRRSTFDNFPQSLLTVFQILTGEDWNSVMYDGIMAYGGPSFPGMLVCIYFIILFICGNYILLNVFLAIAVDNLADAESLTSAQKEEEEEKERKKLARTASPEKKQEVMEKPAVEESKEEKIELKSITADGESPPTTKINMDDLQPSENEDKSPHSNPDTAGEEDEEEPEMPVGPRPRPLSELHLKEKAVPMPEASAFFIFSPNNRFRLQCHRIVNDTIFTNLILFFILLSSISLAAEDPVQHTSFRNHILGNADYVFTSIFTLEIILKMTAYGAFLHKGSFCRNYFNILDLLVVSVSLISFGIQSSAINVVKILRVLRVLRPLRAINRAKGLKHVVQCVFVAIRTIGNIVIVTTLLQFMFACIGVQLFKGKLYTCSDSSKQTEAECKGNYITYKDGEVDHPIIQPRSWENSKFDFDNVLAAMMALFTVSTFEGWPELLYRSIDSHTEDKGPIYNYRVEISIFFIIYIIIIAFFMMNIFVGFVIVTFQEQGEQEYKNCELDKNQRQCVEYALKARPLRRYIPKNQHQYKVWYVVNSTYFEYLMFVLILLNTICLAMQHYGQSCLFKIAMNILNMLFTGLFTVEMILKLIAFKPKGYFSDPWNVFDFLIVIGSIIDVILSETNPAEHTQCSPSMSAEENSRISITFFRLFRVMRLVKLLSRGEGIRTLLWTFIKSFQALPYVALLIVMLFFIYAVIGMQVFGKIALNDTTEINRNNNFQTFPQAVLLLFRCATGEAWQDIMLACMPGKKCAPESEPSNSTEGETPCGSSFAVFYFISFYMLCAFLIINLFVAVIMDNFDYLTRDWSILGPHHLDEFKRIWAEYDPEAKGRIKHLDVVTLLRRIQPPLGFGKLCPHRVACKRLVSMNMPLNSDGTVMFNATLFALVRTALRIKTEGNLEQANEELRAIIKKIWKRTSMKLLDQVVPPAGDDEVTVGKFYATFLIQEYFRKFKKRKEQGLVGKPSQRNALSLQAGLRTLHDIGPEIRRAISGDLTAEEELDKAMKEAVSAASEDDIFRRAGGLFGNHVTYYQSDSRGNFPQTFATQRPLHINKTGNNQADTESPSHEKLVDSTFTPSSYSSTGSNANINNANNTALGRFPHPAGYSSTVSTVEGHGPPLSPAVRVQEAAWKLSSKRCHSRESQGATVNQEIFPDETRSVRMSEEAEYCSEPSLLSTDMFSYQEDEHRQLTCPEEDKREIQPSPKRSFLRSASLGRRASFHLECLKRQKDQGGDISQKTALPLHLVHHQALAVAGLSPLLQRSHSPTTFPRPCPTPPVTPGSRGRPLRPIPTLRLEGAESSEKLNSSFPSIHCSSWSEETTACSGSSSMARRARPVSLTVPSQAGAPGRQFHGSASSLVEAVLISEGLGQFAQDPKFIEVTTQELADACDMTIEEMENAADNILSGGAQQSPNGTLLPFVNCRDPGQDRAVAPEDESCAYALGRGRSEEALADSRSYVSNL
T1 sequence (O08532 25-1103 partner): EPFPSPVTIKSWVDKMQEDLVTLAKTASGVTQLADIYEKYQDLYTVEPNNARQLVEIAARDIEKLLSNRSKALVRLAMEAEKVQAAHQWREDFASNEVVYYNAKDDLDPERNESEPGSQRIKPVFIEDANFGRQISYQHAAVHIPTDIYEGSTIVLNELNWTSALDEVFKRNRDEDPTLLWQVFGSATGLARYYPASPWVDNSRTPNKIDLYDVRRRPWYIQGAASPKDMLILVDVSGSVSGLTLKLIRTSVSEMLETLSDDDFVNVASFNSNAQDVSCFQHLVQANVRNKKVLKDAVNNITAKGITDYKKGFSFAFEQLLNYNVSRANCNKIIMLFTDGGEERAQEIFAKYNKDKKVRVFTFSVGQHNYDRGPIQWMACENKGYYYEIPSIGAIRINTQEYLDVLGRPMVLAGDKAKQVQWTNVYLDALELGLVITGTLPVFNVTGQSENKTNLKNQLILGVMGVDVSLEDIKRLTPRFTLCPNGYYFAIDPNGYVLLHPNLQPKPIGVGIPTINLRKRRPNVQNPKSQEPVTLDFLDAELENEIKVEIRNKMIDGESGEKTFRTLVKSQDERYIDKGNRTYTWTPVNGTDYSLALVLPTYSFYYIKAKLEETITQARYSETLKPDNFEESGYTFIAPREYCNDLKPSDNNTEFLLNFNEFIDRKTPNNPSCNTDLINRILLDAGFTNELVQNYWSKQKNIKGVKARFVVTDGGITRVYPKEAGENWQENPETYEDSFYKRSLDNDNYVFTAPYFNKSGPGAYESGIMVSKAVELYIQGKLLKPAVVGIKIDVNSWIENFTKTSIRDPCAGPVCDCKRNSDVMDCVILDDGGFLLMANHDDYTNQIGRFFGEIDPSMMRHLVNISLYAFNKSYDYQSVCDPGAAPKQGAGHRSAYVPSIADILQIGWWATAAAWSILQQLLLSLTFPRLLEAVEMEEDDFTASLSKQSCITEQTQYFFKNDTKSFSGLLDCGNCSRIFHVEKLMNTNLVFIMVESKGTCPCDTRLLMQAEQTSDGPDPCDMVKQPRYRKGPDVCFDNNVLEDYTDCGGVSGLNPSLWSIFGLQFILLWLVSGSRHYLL
T1 sequence (P54285 whole entry partner): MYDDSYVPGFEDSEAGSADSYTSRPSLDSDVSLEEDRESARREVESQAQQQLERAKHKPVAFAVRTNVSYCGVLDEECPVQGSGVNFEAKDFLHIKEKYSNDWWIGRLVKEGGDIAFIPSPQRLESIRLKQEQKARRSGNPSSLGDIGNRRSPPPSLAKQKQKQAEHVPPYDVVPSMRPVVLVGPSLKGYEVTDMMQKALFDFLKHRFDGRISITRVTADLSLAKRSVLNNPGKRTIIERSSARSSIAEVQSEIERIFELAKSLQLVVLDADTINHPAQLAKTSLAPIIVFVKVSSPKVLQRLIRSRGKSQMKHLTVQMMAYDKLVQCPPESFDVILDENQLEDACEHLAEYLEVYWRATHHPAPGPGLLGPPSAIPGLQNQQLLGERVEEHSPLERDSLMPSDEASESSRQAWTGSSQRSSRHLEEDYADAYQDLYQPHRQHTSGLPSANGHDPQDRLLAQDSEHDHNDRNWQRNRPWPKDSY
Procedure: So to identify the target of certain kudinosides, patch-clamp studies were used to examine the modulation of L-type calcium channel currents after Kudinosides treatment. In patch-clamp studies, whole-cell patch clamp recording of VDCC currents were performed at room temperature, in response to voltage pulses (−60 to +50 mV from a holding potential of −80 mV, 200 ms).

Question: Kudinoside C was tested. Which “relaxation of evoked force of airway smooth muscle / bronchial rings” value [1] did it give?
Answer: strong relaxation effect on airway smooth muscles

Question: What about the “inhibition of airway constriction in vivo” value [2] of the same compound?
Answer: significant inhibition of airway constriction

Question: `C[C@@H]1O[C@@H](O[C@H]2[C@H](O[C@H]3[C@H](O[C@H]4CC[C@]5(C)[C@H]6CC=C7[C@@H]8CC(C)(C)CC[C@]8(C(=O)O)CC[C@@]7(C)[C@]6(C)CC[C@H]5C4(C)C)OC[C@H](O)[C@@H]3O)O[C@H](CO)[C@@H](O)[C@@H]2O)[C@H](O)[C@H](O)[C@H]1O` [Raddeanin A, reference compound] was tested. Which “relaxation of MCh-evoked force at final concentration of 500 μM” value (“relaxation of MCh-evoked force” below) [1] did it give?
Answer: about 50%

Question: How did the “reduction of airway resistance at 1 minute after inhalation, 3 μg (positive control)” value ([2]; 3 μg inhaled, 1 minute, printed as 'led to a reduction of') turn out when `CC(C)(C)NCC(O)c1ccc(O)c(CO)c1` (stereo not drawn) [albuterol, reference compound] was run?
Answer: 55.59±13.07%

Question: What about the “effect on asthmatic airway resistance” value ([2]; n-BuOH phase 30 μg, albuterol 3 μg, inhaled after MCh challenge) of the same compound?
Answer: significant reduction of airway resistance

Question: And the “duration of release of dyspnea” value (human asthma (severe))?
Answer: could not be maintained overnight

Question: What about the “time to release of dyspnea” value (human asthma (severe)) of the same compound?
Answer: ≤ 3 min

Question: For `COC(=O)[C@@]1(C)CC[C@]2(C(=O)O)CC[C@]3(C)C(=CC[C@@H]4[C@@]5(C)C[C@H](O)[C@H](O)[C@@](C)(CO)[C@@H]5CC[C@]43C)[C@@H]2C1` [Phytolaccagenin, reference compound], which “relaxation of MCh-evoked force” value [1] is on record?
Answer: about 50%

Question: Which “relaxation of MCh-evoked force” value [1] does the source give for `CC1(C)[C@@H](O)CC[C@]2(C)[C@H]3C(=O)C=C4[C@@H]5C[C@@](C)(C(=O)O)CC[C@]5(C)CC[C@@]4(C)[C@]3(C)CC[C@@H]12` [Glycyrrhetinic acid, reference compound] here?
Answer: about 50%

Question: What about the IC50 ([1]; Mus musculus) of the same compound?
Answer: 84.3 µM

Question: How did the “relaxation of MCh-evoked force” value [1] turn out when `C[C@@H]1O[C@@H](O[C@@H]2[C@H](O)[C@@H](O)[C@H](O[C@H]3CC[C@@]4(C)C(CC[C@]5(C)C4C=C[C@]46OC[C@@]7(CCC(C)(C)CC74)[C@@H](O)C[C@]65C)C3(C)C)O[C@@H]2CO[C@@H]2O[C@H](CO)[C@@H](O)[C@H](O)[C@H]2O)[C@H](O)[C@H](O)[C@H]1O` (stereo partly drawn) [Saikosaponin C, reference compound] was run?
Answer: about 50%

Question: What about the IC50 [1] of the same compound?
Answer: > 150 µM

Question: `C[C@@H]1O[C@@H](O[C@H]2[C@H](O[C@H]3[C@H](O[C@H]4CC[C@@]5(C)[C@@H](CC[C@]6(C)[C@@H]5CC=C5[C@@H]7CC(C)(C)C[C@@H](O)[C@]7(C)CC[C@]56C)[C@@]4(C)CO)O[C@H](C(=O)O)[C@@H](O)[C@@H]3O)O[C@H](CO)[C@H](O)[C@@H]2O)[C@H](O)[C@H](O)[C@H]1O` [Soyasaponin Bb, reference compound] was tested. Which “relaxation of MCh-evoked force” value [1] did it give?
Answer: about 50%

Question: Which “force relaxed / inhibition of evoked force at 30 μM” value ([1]; force evoked by acetylcholine, cumulative concentrations, 30 μM) does the source give for Kudinoside A here?
Answer: 80%

Question: What about the “relaxation of evoked force of airway smooth muscle / bronchial rings” value [1] of the same compound?
Answer: significantly relaxed bronchial rings in a dose-dependent manner

Question: What about the “decrease of current generated by L-type calcium channel compared to vehicle” value (L-type calcium channel) of the same compound?
Answer: about 60%

Question: What about the “duration of release of dyspnea” value (human asthma (severe)) of the same compound?
Answer: maintained overnight

Question: And the “PEF value after inhalation” value (human asthma (severe); 20 mM, 15 seconds inhalation, increased from 100)?
Answer: 320

Question: What about the “time to release of dyspnea” value (human asthma (severe)) of the same compound?
Answer: 5 min

Question: With Kudinoside H as the compound, how does the “relaxation of evoked force of airway smooth muscle / bronchial rings” value [1] read?
Answer: fails to show effective bronchial ring relaxation; also recorded: little effect on relaxation in vitro

Question: And the “inhibition of airway constriction in vivo” value [2]?
Answer: little inhibition activity of airway constriction in vivo
